This is an account of results in patent publication US12186283B2, “Bismuth-thiol compositions and methods of use” (Microbion Corporation, priority 2018, dated 2025).

In brackets after ≈: the same amount, converted by molar mass. Where two headings read alike, the source gives them in different places.

Assay [1] deals with Candida spp. Kind of assay: Broth microdilution MIC, yeast (Example 13), group statement and QC. The class given is cell-based. Conditions: C. parapsilosis ATCC 22019, comparators, single value. In general terms: Dilution methods test growth across graded concentrations, often in twofold steps.
For another assay, the system named is S. aureus ATCC 29213. Kind of assay: Broth microdilution MIC, QC organism (Example 13, Table 110). The class given is cell-based, Staphylococcus aureus. An excerpt:
(§1) MECs were only reported where observed.

Another assay has as its system E. coli ATCC 25922. The description is as above. Type of assay: cell-based, Escherichia coli.
From the text: as §1

The test system of assay [2] is Candida spp. Conditions: C. parapsilosis ATCC 22019, CLSI established QC range, cited from earlier work.
In assay [3] the test system is Aspergillus spp. Conditions: cited from earlier work.
For assay [4], the system named is Candida spp. (C. parapsilosis, C. albicans, C. glabrata, C. tropicalis). Conditions: C. parapsilosis MMX 2323 (ATCC 22019), cited from earlier work.
The test system of assay [5] is Candida krusei. The experiment in a line: Broth microdilution MIC, yeast (Example 13). Type of assay: cell-based. Conditions: C. krusei ATCC 6258 (QC, Table 110), comparators, single value.
Assay [6] has as its system Aspergillus spp. The experiment in a line: Broth microdilution MIC/MEC, mold (Example 13). The class given is cell-based.
Assay [7] relates to Candida krusei. Conditions: C. krusei ATCC 6258, CLSI established QC range, cited from earlier work.
The subject of assay [8] is Candida spp. (C. parapsilosis, C. albicans, C. glabrata, C. tropicalis). The experiment in a line: Broth microdilution MIC, yeast (Example 11). The class given is cell-based.
The test system of assay [9] is Enterococcus spp. (E. faecalis, E. faecium). The experiment in a line: Broth microdilution MIC (Example 11). The class given is cell-based. Conditions: VRE, VRE.
For assay [10], the system named is Staphylococcus aureus (MRSA). Conditions: S. aureus MMX 101 (ATCC 29213); cited from earlier work.
A further assay has as its system Escherichia coli. Conditions: E. coli MMX 102 (ATCC 25922); cited from earlier work.
The subject of another assay is Pseudomonas aeruginosa. Conditions: P. aeruginosa MMX 103 (ATCC 27853); cited from earlier work.
In assay [11] the test system is S. pneumoniae (pneumococci). Conditions: S. pneumoniae MMX 6837 (ATCC 49619); cited from earlier work.
For assay [12], the system named is beta-hemolytic streptococci (S. pyogenes, S. agalactiae). The experiment in a line: Broth microdilution MIC (Example 11). The class given is cell-based, Streptococcus pyogenes, Streptococcus agalactiae.
[13] abbreviates: A. flavus ATCC 204304, CLSI established QC range.
The mark [14] stands for this setting: A. fumigatus ATCC MYA-3626, CLSI established QC range.
Where [15] appears, read: A. flavus ATCC 204304 (QC, Table 110).
Where [16] appears, read: A. fumigatus ATCC MYA-3626 (QC, Table 110).

Turning to `C[C@@H]1[C@H](O)[C@@H](C)/C=C/C=C/C=C/C=C/C=C/C=C/C=C/[C@H](O[C@@H]2O[C@H](C)[C@@H](O)[C@H](N)[C@@H]2O)C[C@@H]2O[C@](O)(C[C@@H](O)C[C@@H](O)[C@H](O)CC[C@@H](O)C[C@@H](O)CC(=O)O[C@H]1C)C[C@H](O)[C@H]2C(=O)O` [Amphotericin B], the MIC 24 hr was 0.5 mg/L (≈ 0.541 µM) in the assay with Candida spp. [1]; greater than 64 mg/L against S. aureus ATCC 29213; greater than 64 mg/L with E. coli ATCC 25922; 0.5 mg/L (≈ 0.541 µM) in the assay on Candida krusei [5]; 0.5 mg/L (≈ 0.541 µM) with Aspergillus spp. [6] (setting [15]); 0.5 mg/L (≈ 0.541 µM) against Aspergillus spp. [6] (setting [16]). Besides, the MIC 48 hr worked out at 0.5 mg/L (≈ 0.541 µM) against Candida spp. [1], 0.5 mg/L (≈ 0.541 µM) with Candida krusei [5], 1 mg/L (≈ 1.08 µM) in the assay on Aspergillus spp. [6] (setting [15]) and 1 mg/L (≈ 1.08 µM) against Aspergillus spp. [6] (setting [16]). For the same compound, the “QC Range 24 hr” value with Candida spp. [2] was 0.25-2; in the assay with Candida krusei [7], 0.5-2. The “QC Range 48 hr” value in the assay with Candida spp. [2] is listed as 0.5-4; in the assay on Aspergillus spp. [3] (setting [13]) it was 0.5-4; with Aspergillus spp. [3] (setting [14]), 0.5-4; in the assay on Candida krusei [7], 1-4. For the same compound, the “MIC, CLSI QC range” value in assay [4] (24 hr) is 0.25 to 2 mg/L; in assay [4] (48 hr), 0.5 to 4 mg/L. The minimum inhibitory concentration (MIC) in assay [8] (C. albicans MMX 7039, Sensitive, 24 hr) is 0.5, 0.5 μg/mL; in assay [8] (C. albicans MMX 7039, Sensitive, 48 hr) it was 0.5, 0.5 μg/mL; in assay [8] (C. albicans MMX 7055, Sensitive, 24 hr), 0.25 µg/mL (≈ 0.271 µM); in assay [8] (C. albicans MMX 7055, Sensitive, 48 hr) it was 0.5 µg/mL (≈ 0.541 µM); in assay [8] (C. glabrata MMX 7086, FLU^R, 24 hr) it was 0.5 µg/mL (≈ 0.541 µM); in assay [8] (C. glabrata MMX 7086, FLU^R, 48 hr), 1 µg/mL (≈ 1.08 µM). Moreover, the minimal inhibitory concentration (MIC) in assay [8] (C. glabrata MMX 7318, FLU^R, 24 hr) turned out to be 0.5 µg/mL (≈ 0.541 µM); in [8] (C. glabrata MMX 7318, FLU^R, 48 hr), 1 µg/mL (≈ 1.08 µM); in assay [8] (C. parapsilosis MMX 2323 (ATCC 22019), QC, 24 hr), 0.5 µg/mL (≈ 0.541 µM); in assay [8] (C. parapsilosis MMX 2323 (ATCC 22019), QC, 48 hr), 1 µg/mL (≈ 1.08 µM); in assay [8] (C. parapsilosis MMX 7370, FLU^R, 24 hr) it was 0.5 µg/mL (≈ 0.541 µM); in [8] (C. parapsilosis MMX 7370, FLU^R, 48 hr), 1 µg/mL (≈ 1.08 µM). In addition, the MIC was 0.5, 0.5 μg/mL in assay [8] (C. parapsilosis MMX 7555, FLU^R, 24 hr); 0.5, 0.5 μg/mL in assay [8] (C. parapsilosis MMX 7555, FLU^R, 48 hr); 0.5 µg/mL (≈ 0.541 µM) in [8] (C. tropicalis MMX 7247, FLU^R, 24 hr); 1 µg/mL (≈ 1.08 µM) in assay [8] (C. tropicalis MMX 7247, FLU^R, 48 hr); 0.5 µg/mL (≈ 0.541 µM) in assay [8] (C. tropicalis MMX 7248, FLU^R, 24 hr); 1 µg/mL (≈ 1.08 µM) in assay [8] (C. tropicalis MMX 7248, FLU^R, 48 hr). For the same compound, the MIC in assay [8] (C. tropicalis MMX 7360, FLU^R, 24 hr) is recorded as 0.5, 0.5 μg/mL; in [8] (C. tropicalis MMX 7360, FLU^R, 48 hr), 0.5, 0.5 μg/mL.

`CC(C)(O/N=C(\C(=O)N[C@@H]1C(=O)N2C(C(=O)[O-])=C(C[n+]3ccccc3)CS[C@H]12)c1csc(N)n1)C(=O)O` [Ceftazidime]: in [9] (Enterococcus faecium, E. faecium MMX 485, vanA, LevR, CipR, EryR, read-out: MIC), the MIC was greater than 32 mg/L. Also, the “CLSI QC range (MIC)” value in [10] is on record as “(4-16) μg/mL”; with Escherichia coli, “(0.06-0.5) μg/mL”; in the assay with Pseudomonas aeruginosa, “(1-4)”.

In the case of `C[C@@H](c1ncncc1F)[C@](O)(Cn1cncn1)c1ccc(F)cc1F` [Voriconazole], the figures for the MIC 48 hr in the assay with Candida spp. [1] and in the assay on Candida krusei [5] were 0.12 mg/L (≈ 0.344 µM) and 0.5 mg/L (≈ 1.43 µM), respectively. The MIC 24 hr in the assay on S. aureus ATCC 29213 is greater than 64 mg/L; in the assay on E. coli ATCC 25922, greater than 64 mg/L; against Candida krusei [5], 0.12 mg/L (≈ 0.344 µM); against Aspergillus spp. [6] (setting [15]) it was 0.12 mg/L (≈ 0.344 µM); against Aspergillus spp. [6] (setting [16]), 0.25 mg/L (≈ 0.716 µM). Further, the “QC Range 24 hr” value was 0.015-0.12 in the assay on Candida spp. [2] and 0.06-0.5 in the assay with Candida krusei [7]. Moreover, the “QC Range 48 hr” value is 0.03-0.25 in the assay with Candida spp. [2], 0.5-4 in the assay with Aspergillus spp. [3] (setting [13]), 0.25-1 in the assay with Aspergillus spp. [3] (setting [14]) and 0.12-1 in the assay on Candida krusei [7].

For the compound `OC(Cn1cncn1)(Cn1cncn1)c1ccc(F)cc1F` [fluconazole, reference compound], the MIC 24 hr with Candida spp. [1] is 1 mg/L (≈ 3.27 µM); with S. aureus ATCC 29213 it was greater than 64 mg/L; in the assay with E. coli ATCC 25922, greater than 64 mg/L; against Candida krusei [5] it was 16 mg/L (≈ 52.2 µM). Further, the “QC Range 24 hr” value in the assay on Candida spp. [2] is 0.5-4; with Candida krusei [7], 8-64. Also, the figures for the “QC Range 48 hr” value in the assay on Candida spp. [2] and in the assay on Candida krusei [7] were 1-4 and 16-128, respectively. The entries for the “MIC, CLSI QC range” value in [4] (24 hr) and in assay [4] (48 hr) were 0.5 to 4 mg/L and 1 to 4 mg/L, respectively. In addition, in the assay with Candida krusei [5], the MIC 48 hr was 32 mg/L (≈ 104 µM). Besides, the outcome in the assay on Aspergillus spp. [6] (Aspergillus spp.) was inactive.

As for `CN[C@H](CC(C)C)C(=O)N[C@H]1C(=O)N[C@@H](CC(N)=O)C(=O)N[C@H]2C(=O)N[C@H]3C(=O)N[C@H](C(=O)N[C@H](C(=O)O)c4cc(O)cc(O)c4-c4cc3ccc4O)[C@H](O)c3ccc(c(Cl)c3)Oc3cc2cc(c3O[C@@H]2O[C@H](CO)[C@@H](O)[C@H](O)[C@H]2O[C@H]2C[C@](C)(N)[C@H](O)[C@H](C)O2)Oc2ccc(cc2Cl)[C@H]1O` [vancomycin, reference compound], the MIC is greater than 64 mg/L in [9] (E. faecalis MMX 8961, LevR, CipR, EryR); greater than 64 mg/L in assay [9] (E. faecalis MMX 8962, LevR, CipR, EryR); greater than 64 mg/L in [9] (E. faecium MMX 485, vanA, LevR, CipR, EryR); greater than 64 mg/L in assay [9] (Enterococcus faecalis); greater than 64 mg/L in [9] (Enterococcus faecium); 0.5 mg/L (≈ 0.345 µM) in assay [12] (S. agalactiae MMX 3741, ERY^R CC^R). Moreover, the MIC in [12] (S. agalactiae MMX 3743, ERY^R CC^R) came to 0.5 mg/L (≈ 0.345 µM); in assay [12] (S. agalactiae MMX 4077, ERY^R CC^R), 0.5 mg/L (≈ 0.345 µM); in assay [12] (S. agalactiae MMX 4079, ERY^R CC^R Pen^R MEM^R), 2 mg/L (≈ 1.38 µM); in assay [12] (S. agalactiae MMX 4086, ERY^R CC^R), 1 mg/L (≈ 0.69 µM). The “MIC, CLSI QC range” value in [11] was “(0.12-0.5) μg/mL”. Also, the “CLSI QC range (MIC)” value in assay [10] is “(0.5-2) μg/mL”.

In general, MIC refers to the lowest concentration found to suppress growth.
